Test results: patent publication US20100196512A1, “Treatment of Non-Oral Biological Tissue with Chlorine Dioxide” (priority 2009, published 2010)

How the values were obtained:
[1] = tested on: mixed PA/MRSA biofilm (total bacteria); experiment: Kill of mixed PA/MRSA biofilm grown on ceramic disks by chlorine dioxide solution; type: cell-based, Staphylococcus aureus and Pseudomonas aeruginosa; details: for Log Reduction in Organism Count: MRSA + PA biofilm, total bacteria
From the text: (§1) Chlorine dioxide treatment involves exposing micro-organisms to chlorine dioxide for a period of time. Treatment conditions, often called the “dose or dosage” of chlorine dioxide, can be determined by calculating the integral of the chlorine dioxide concentration as a function of time, C(t), over the treatment time of use:
(§2) In systems where the chlorine dioxide concentration is generally constant over the treatment time (e.g., varies by less than ±10% relative) or varies linearly over the treatment time, an average chlorine dioxide concentration may be calculated by averaging the starting and ending concentrations and then multiplying that average chlorine dioxide concentration during an exposure period by the time of exposure (Average Concentration X Time). Dose is commonly given in units of ppm-minutes.
(§3) A series of experiments were conducted to estimate the dose of chlorine dioxide needed to kill bacterial biofilms consisting of Pseudomonas aeruginosa (PA), methicillin resistant Staphylococcus aureus (MRSA), or a combination of both.
(§4) Bacterial biofilms were grown for between 7 and 10 days on non-porous ceramic disks in a spinning disk biofilm reactor. The reactors were inoculated with PA, MRSA, or a mixture of MRSA and PA bacteria to produce PA, MRSA, or mixed PA/MRSA biofilms respectively.
(§5) Chlorine dioxide solutions were produced at different nominal concentrations using ASEPTROL® S-Tab 10 tablets, and the exact concentrations were then measured using a Hach Model 2400 UV/Vis spectrophotometer in accordance with the manufacturer's instructions. Pairs of biofilm-containing disks were immersed for different times in solutions of different chlorine dioxide concentrations, neutralized with dilute sodium thiosulfate solution, and then plated to determine the number of surviving bacteria on each disk. Two untreated disks were also exposed to neutralizing solution and plated to determine the starting bacterial counts. In all tests, the baseline bacterial counts were in the range of 10^7 to 10^7.5 colony-forming units per disk (cfu/disk). A one log reduction refers to reducing the cfu/disk by one order of magnitude, e.g., a reduction from 10^7.1 cfu/disk to 10^6.1 cfu/disk. Accordingly, a substantially complete kill is achieved if the log reduction of bacteria is about 7 to 7.5.
(§6) The table summarizes the test conditions used in the different experiments, and presents the results in terms of log reduction of the different bacterial organisms. In the case of mixed PA/MRSA biofilms, results are given as total bacteria.

[2] = tested on: Pseudomonas aeruginosa (PA) biofilm; experiment: Kill of PA biofilm grown on ceramic disks by chlorine dioxide solution; type: cell-based
From the text: as §1, §2, §3, §4, §5, §6

[3] = tested on: methicillin resistant Staphylococcus aureus (MRSA) biofilm; experiment: Kill of MRSA biofilm grown on ceramic disks by chlorine dioxide solution; type: cell-based
From the text: as §1, §2, §3, §4, §5, §6

## [O][Cl+][O-] [ClO2, chlorine dioxide]
[1]; Sample 12, exposure 10.0 minutes, ClO2 52 ppm, 520 ppm-min
  Log Reduction in Organism Count: 5.5
[1]; Sample 13, exposure 30.0 minutes, ClO2 52 ppm, 1560 ppm-min
  Log Reduction in Organism Count: 7.4
[1]; Sample 14, exposure 1.0 minutes, ClO2 181 ppm, 181 ppm-min
  Log Reduction in Organism Count: 5.1
[1]; Sample 15, exposure 5.0 minutes, ClO2 160 ppm, 800 ppm-min
  Log Reduction in Organism Count: 7.4
[1]; Sample 16, exposure 30.0 minutes, ClO2 160 ppm, 4800 ppm-min
  Log Reduction in Organism Count: 7.4
[1]; mixed PA/MRSA biofilm, see Sample 12
  dose for a kill of about 5 orders of magnitude (5 log): greater than 200 ppm-min
[2]; Sample 6, exposure 0.5 minutes, ClO2 200 ppm, 100 ppm-min
  Log Reduction in Organism Count: 5.9
[2]; Sample 7, exposure 5.0 minutes, ClO2 43 ppm, […]-min
  Log Reduction in Organism Count: 5.7
[2]; Sample 8, exposure 5.0 minutes, ClO2 187 ppm, 935 ppm-min
  Log Reduction in Organism Count: 7.5
[2]; Sample 9, exposure 10.0 minutes, ClO2 37 ppm, 370 ppm-min
  Log Reduction in Organism Count: 7.5
[2]; Sample 10, exposure 50.0 minutes, ClO2 35 ppm, 1750 ppm-min
  Log Reduction in Organism Count: 7.5
[2]; Sample 11, exposure 50.0 minutes, ClO2 166 ppm, 8300 ppm-min
  Log Reduction in Organism Count: 7.5
[2]; see Sample 7
  dose for a kill of about 5 orders of magnitude (5 log): greater than 200 ppm-min
[3]; Sample 1, exposure 1.0 minutes, ClO2 208 ppm, 208 ppm-min
  Log Reduction in Organism Count: 5.5
[3]; Sample 2, exposure 5.0 minutes, ClO2 204 ppm, 1020 ppm-min
  Log Reduction in Organism Count: 7.1
[3]; Sample 3 (second line), exposure 30.0 minutes, ClO2 40 ppm, 1200 ppm-min
  Log Reduction in Organism Count: 5.1
[3]; Sample 3, exposure 10.0 minutes, ClO2 45 ppm, 450 ppm-min
  Log Reduction in Organism Count: 5.5
[3]; Sample 4, exposure 30.0 minutes, ClO2 175 ppm, 5250 ppm-min
  Log Reduction in Organism Count: 7.1
[3]; see Sample 1
  dose for a kill of about 5 orders of magnitude (5 log): greater than 200 ppm-min
